Read-outs that look alike come from different tables or passages of the source.
Key:
134 cancer cell lines = assay: Cell viability assay (ATPlite, 72 hours), IC50 on cancer cell line panel
AP-1060 (ETV6-NTRK3) = assay: Cell viability assay; conditions: read-out: IC50 in cell proliferation assay

COc1cc(N2CCC(N3CCN(C)CC3)CC2)ccc1Nc1ncc(Cl)c(Nc2ccccc2P(C)(C)=O)n1 [brigatinib]
IC50 (134 cancer cell lines; HEC-6, read-out: IC50 in cell proliferation assay): 5210 nM | IC50 (134 cancer cell lines; Homo sapiens, 769-P, read-out: IC50 in cell proliferation assay): 1910 nM | IC50 (134 cancer cell lines; Homo sapiens, 786-0, read-out: IC50 in cell proliferation assay): 2070 nM | IC50 (134 cancer cell lines; Homo sapiens, A 172, read-out: IC50 in cell proliferation assay): 888 nM | IC50 (134 cancer cell lines; Homo sapiens, A204, read-out: IC50 in cell proliferation assay): 1270 nM | IC50 (134 cancer cell lines; Homo sapiens, A498, read-out: IC50 in cell proliferation assay): 1860 nM | IC50 (134 cancer cell lines; Homo sapiens, A549, read-out: IC50 in cell proliferation assay): 893 nM | IC50 (134 cancer cell lines; Homo sapiens, A704, read-out: IC50 in cell proliferation assay): 3590 nM | IC50 (134 cancer cell lines; Homo sapiens, A-375, read-out: IC50 in cell proliferation assay): 719 nM | IC50 (134 cancer cell lines; Homo sapiens, A-427, read-out: IC50 in cell proliferation assay): 448 nM | IC50 (134 cancer cell lines; Homo sapiens, ACHN, read-out: IC50 in cell proliferation assay): 894 nM | IC50 (134 cancer cell lines; Homo sapiens, AN3-CA, read-out: IC50 in cell proliferation assay): 1860 nM | IC50 (134 cancer cell lines; Homo sapiens, ASPC1, read-out: IC50 in cell proliferation assay): 809 nM | IC50 (134 cancer cell lines; Homo sapiens, AU565, read-out: IC50 in cell proliferation assay): 2580 nM | IC50 (134 cancer cell lines; Homo sapiens, BT-20, read-out: IC50 in cell proliferation assay): 4210 nM | IC50 (134 cancer cell lines; Homo sapiens, BT-474, read-out: IC50 in cell proliferation assay): 7880 nM | IC50 (134 cancer cell lines; Homo sapiens, BT-549, read-out: IC50 in cell proliferation assay): 3010 nM | IC50 (134 cancer cell lines; Homo sapiens, BXPC-3, read-out: IC50 in cell proliferation assay): 619 nM | IC50 (134 cancer cell lines; Homo sapiens, C-33-A, read-out: IC50 in cell proliferation assay): 527 nM | IC50 (134 cancer cell lines; Homo sapiens, CAL-27, read-out: IC50 in cell proliferation assay): 673 nM | IC50 (134 cancer cell lines; Homo sapiens, CCF-STTG1, read-out: IC50 in cell proliferation assay): 3440 nM | IC50 (134 cancer cell lines; Homo sapiens, CCRF-CEM, read-out: IC50 in cell proliferation assay): 3600 nM | IC50 (134 cancer cell lines; Homo sapiens, COLO 205, read-out: IC50 in cell proliferation assay): 998 nM | IC50 (134 cancer cell lines; Homo sapiens, COLO-829, read-out: IC50 in cell proliferation assay): 2560 nM | IC50 (134 cancer cell lines; Homo sapiens, DLD-1, read-out: IC50 in cell proliferation assay): 4720 nM | IC50 (134 cancer cell lines; Homo sapiens, DU-145, read-out: IC50 in cell proliferation assay): 667 nM | IC50 (134 cancer cell lines; Homo sapiens, DU-4475, read-out: IC50 in cell proliferation assay): 1790 nM | IC50 (134 cancer cell lines; Homo sapiens, Daoy, read-out: IC50 in cell proliferation assay): 3070 nM | IC50 (134 cancer cell lines; Homo sapiens, DoTc2-4510, read-out: IC50 in cell proliferation assay): 270 nM | IC50 (134 cancer cell lines; Homo sapiens, EOL1, read-out: IC50 in cell proliferation assay): 50 nM | IC50 (134 cancer cell lines; Homo sapiens, FaDu, read-out: IC50 in cell proliferation assay): 971 nM | IC50 (134 cancer cell lines; Homo sapiens, G-361, read-out: IC50 in cell proliferation assay): 9280 nM | IC50 (134 cancer cell lines; Homo sapiens, HCC827, read-out: IC50 in cell proliferation assay): 129 nM | IC50 (134 cancer cell lines; Homo sapiens, HCC4006, read-out: IC50 in cell proliferation assay): 152 nM | IC50 (134 cancer cell lines; Homo sapiens, HCT-15, read-out: IC50 in cell proliferation assay): 3770 nM | IC50 (134 cancer cell lines; Homo sapiens, HCT-116, read-out: IC50 in cell proliferation assay): 1690 nM | IC50 (134 cancer cell lines; Homo sapiens, HEC-1, read-out: IC50 in cell proliferation assay): 1810 nM | IC50 (134 cancer cell lines; Homo sapiens, HEC-1B, read-out: IC50 in cell proliferation assay): 367 nM | IC50 (134 cancer cell lines; Homo sapiens, HL-60, read-out: IC50 in cell proliferation assay): 1110 nM | IC50 (134 cancer cell lines; Homo sapiens, HT, read-out: IC50 in cell proliferation assay): 4540 nM | IC50 (134 cancer cell lines; Homo sapiens, HT-1080, read-out: IC50 in cell proliferation assay): 1660 nM | IC50 (134 cancer cell lines; Homo sapiens, Hs746T, read-out: IC50 in cell proliferation assay): 2140 nM | IC50 (134 cancer cell lines; Homo sapiens, Hs-578T, read-out: IC50 in cell proliferation assay): 1390 nM | IC50 (134 cancer cell lines; Homo sapiens, HuTu80, read-out: IC50 in cell proliferation assay): 451 nM | IC50 (134 cancer cell lines; Homo sapiens, J82, read-out: IC50 in cell proliferation assay): 1880 nM | IC50 (134 cancer cell lines; Homo sapiens, Jurkat E6.1, read-out: IC50 in cell proliferation assay): 4380 nM | IC50 (134 cancer cell lines; Homo sapiens, K562, read-out: IC50 in cell proliferation assay): 2740 nM | IC50 (134 cancer cell lines; Homo sapiens, KATO III, read-out: IC50 in cell proliferation assay): 211 nM | IC50 (134 cancer cell lines; Homo sapiens, KG-1, read-out: IC50 in cell proliferation assay): 243 nM | IC50 (134 cancer cell lines; Homo sapiens, KLE, read-out: IC50 in cell proliferation assay): 553 nM | IC50 (134 cancer cell lines; Homo sapiens, KMS-11, read-out: IC50 in cell proliferation assay): 430 nM | IC50 (134 cancer cell lines; Homo sapiens, KU812, read-out: IC50 in cell proliferation assay): 1390 nM | IC50 (134 cancer cell lines; Homo sapiens, Kasumi 1, read-out: IC50 in cell proliferation assay): 207 nM | IC50 (134 cancer cell lines; Homo sapiens, LC-2-ad, read-out: IC50 in cell proliferation assay): 334 nM | IC50 (134 cancer cell lines; Homo sapiens, LNCaP-Clone-FGC, read-out: IC50 in cell proliferation assay): 689 nM | IC50 (134 cancer cell lines; Homo sapiens, LS174T, read-out: IC50 in cell proliferation assay): 1330 nM | IC50 (134 cancer cell lines; Homo sapiens, LS-411N, read-out: IC50 in cell proliferation assay): 1760 nM | IC50 (134 cancer cell lines; Homo sapiens, LoVo, read-out: IC50 in cell proliferation assay): 2020 nM | IC50 (134 cancer cell lines; Homo sapiens, MCF7, read-out: IC50 in cell proliferation assay): 601 nM | IC50 (134 cancer cell lines; Homo sapiens, MDA-MB-231, read-out: IC50 in cell proliferation assay): 2000 nM | IC50 (134 cancer cell lines; Homo sapiens, MDA-MB-453, read-out: IC50 in cell proliferation assay): 6650 nM | IC50 (134 cancer cell lines; Homo sapiens, MDA-MB-468, read-out: IC50 in cell proliferation assay): 2010 nM | IC50 (134 cancer cell lines; Homo sapiens, MG-63, read-out: IC50 in cell proliferation assay): 1050 nM | IC50 (134 cancer cell lines; Homo sapiens, MIA PaCa-2, read-out: IC50 in cell proliferation assay): 1190 nM | IC50 (134 cancer cell lines; Homo sapiens, MKN-45, read-out: IC50 in cell proliferation assay): 2640 nM | IC50 (134 cancer cell lines; Homo sapiens, MOLM-13, read-out: IC50 in cell proliferation assay): 58 nM | IC50 (134 cancer cell lines; Homo sapiens, MOLT-4, read-out: IC50 in cell proliferation assay): 1950 nM | IC50 (134 cancer cell lines; Homo sapiens, MV4-11, read-out: IC50 in cell proliferation assay): 33 nM | IC50 (134 cancer cell lines; Homo sapiens, MeWo, read-out: IC50 in cell proliferation assay): > 10000 nM | IC50 (134 cancer cell lines; Homo sapiens, NCCIT, read-out: IC50 in cell proliferation assay): 2680 nM | IC50 (134 cancer cell lines; Homo sapiens, NCI-H82, read-out: IC50 in cell proliferation assay): 1980 nM | IC50 (134 cancer cell lines; Homo sapiens, NCI-H460, read-out: IC50 in cell proliferation assay): 1380 nM | IC50 (134 cancer cell lines; Homo sapiens, NCI-H661, read-out: IC50 in cell proliferation assay): 402 nM | IC50 (134 cancer cell lines; Homo sapiens, NCI-H716, read-out: IC50 in cell proliferation assay): 201 nM | IC50 (134 cancer cell lines; Homo sapiens, NCI-H1650, read-out: IC50 in cell proliferation assay): 673 nM | IC50 (134 cancer cell lines; Homo sapiens, NCI-H1975, read-out: IC50 in cell proliferation assay): 449 nM | IC50 (134 cancer cell lines; Homo sapiens, NCI-H2228, read-out: IC50 in cell proliferation assay): 8 nM | IC50 (134 cancer cell lines; Homo sapiens, OVCAR-3, read-out: IC50 in cell proliferation assay): 939 nM | IC50 (134 cancer cell lines; Homo sapiens, PFSK-1, read-out: IC50 in cell proliferation assay): 592 nM | IC50 (134 cancer cell lines; Homo sapiens, RL95-2, read-out: IC50 in cell proliferation assay): 652 nM | IC50 (134 cancer cell lines; Homo sapiens, RPMI-7951, read-out: IC50 in cell proliferation assay): 1280 nM | IC50 (134 cancer cell lines; Homo sapiens, RS4-11, read-out: IC50 in cell proliferation assay): 473 nM | IC50 (134 cancer cell lines; Homo sapiens, Rec1, read-out: IC50 in cell proliferation assay): 1320 nM | IC50 (134 cancer cell lines; Homo sapiens, SHP77, read-out: IC50 in cell proliferation assay): 5190 nM | IC50 (134 cancer cell lines; Homo sapiens, SK-BR-3, read-out: IC50 in cell proliferation assay): 1360 nM | IC50 (134 cancer cell lines; Homo sapiens, SK-N-AS, read-out: IC50 in cell proliferation assay): 618 nM | IC50 (134 cancer cell lines; Homo sapiens, SK-N-FI, read-out: IC50 in cell proliferation assay): 1090 nM | IC50 (134 cancer cell lines; Homo sapiens, SK-N-MC, read-out: IC50 in cell proliferation assay): 401 nM | IC50 (134 cancer cell lines; Homo sapiens, SK-N-SH, read-out: IC50 in cell proliferation assay): 367 nM | IC50 (134 cancer cell lines; Homo sapiens, SNU-5, read-out: IC50 in cell proliferation assay): 2150 nM | IC50 (134 cancer cell lines; Homo sapiens, SNU-16, read-out: IC50 in cell proliferation assay): 376 nM | IC50 (134 cancer cell lines; Homo sapiens, SNU-C2B, read-out: IC50 in cell proliferation assay): 741 nM | IC50 (134 cancer cell lines; Homo sapiens, SU-DHL-1, read-out: IC50 in cell proliferation assay): 35 nM | IC50 (134 cancer cell lines; Homo sapiens, SU-DHL-6, read-out: IC50 in cell proliferation assay): 1340 nM | IC50 (134 cancer cell lines; Homo sapiens, SUP-T1, read-out: IC50 in cell proliferation assay): 1480 nM | IC50 (134 cancer cell lines; Homo sapiens, SW48, read-out: IC50 in cell proliferation assay): 713 nM | IC50 (134 cancer cell lines; Homo sapiens, SW480, read-out: IC50 in cell proliferation assay): 1090 nM | IC50 (134 cancer cell lines; Homo sapiens, SW626, read-out: IC50 in cell proliferation assay): 1300 nM | IC50 (134 cancer cell lines; Homo sapiens, SW780, read-out: IC50 in cell proliferation assay): 317 nM | IC50 (134 cancer cell lines; Homo sapiens, SW837, read-out: IC50 in cell proliferation assay): 663 nM | IC50 (134 cancer cell lines; Homo sapiens, SW872, read-out: IC50 in cell proliferation assay): 780 nM | IC50 (134 cancer cell lines; Homo sapiens, SW900, read-out: IC50 in cell proliferation assay): 537 nM | IC50 (134 cancer cell lines; Homo sapiens, SW948, read-out: IC50 in cell proliferation assay): 1440 nM | IC50 (134 cancer cell lines; Homo sapiens, SW982, read-out: IC50 in cell proliferation assay): 490 nM | IC50 (134 cancer cell lines; Homo sapiens, SW-620, read-out: IC50 in cell proliferation assay): 980 nM | IC50 (134 cancer cell lines; Homo sapiens, T98G, read-out: IC50 in cell proliferation assay): 1340 nM | IC50 (134 cancer cell lines; Homo sapiens, TCC-SUP, read-out: IC50 in cell proliferation assay): 1420 nM | IC50 (134 cancer cell lines; Homo sapiens, THP-1, read-out: IC50 in cell proliferation assay): 6380 nM | IC50 (134 cancer cell lines; Homo sapiens, U2OS, read-out: IC50 in cell proliferation assay): 1240 nM | IC50 (134 cancer cell lines; Homo sapiens, U-87 MG, read-out: IC50 in cell proliferation assay): 8530 nM | IC50 (134 cancer cell lines; Homo sapiens, U-118-MG, read-out: IC50 in cell proliferation assay): 1880 nM | IC50 (134 cancer cell lines; Homo sapiens, UMUC3, read-out: IC50 in cell proliferation assay): 1320 nM | IC50 (134 cancer cell lines; Hs766T, read-out: IC50 in cell proliferation assay): 2540 nM | IC50 (134 cancer cell lines; L-82, read-out: IC50 in cell proliferation assay): 6.37 nM | IC50 (134 cancer cell lines; Rh30, read-out: IC50 in cell proliferation assay): 464 nM | IC50 (AP-1060 (ETV6-NTRK3)): 2400 nM
